Source: article PMC4840272 (Neoplasia (New York, N.Y.), 2016)

How the values were obtained:
A549 cells = experiment: cells; type: cell-based, human; settings: Homo sapiens, A549, 72 h
CL100 cells = experiment: cells; type: cell-based, human; settings: Homo sapiens, 72 h
CL141T cells = experiment: cells; type: cell-based, human; settings: Homo sapiens, 72 h
CL97 cells = experiment: cells; type: cell-based, human; settings: Homo sapiens, CL97, 72 h
PC9 cells = experiment: cells; type: cell-based, human; settings: Homo sapiens, PC-9, 72 h
H1975 cells = experiment: cells; type: cell-based, human; settings: Homo sapiens, NCI-H1975, 72 h
PC9/gef B4 cells = experiment: cells; type: cell-based, human
H1650 cells = experiment: cells; type: cell-based, human; settings: Homo sapiens, NCI-H1650, 72 h
H460 cells = experiment: cells; type: cell-based, human; settings: Homo sapiens, NCI-H460, 72 h
CL1-5 cells = experiment: alamarBlue in vitro cytotoxicity assay; type: cell-based, human; settings: Homo sapiens, CL1-5, 72 h
H1299 cells = experiment: cells; type: cell-based, human; settings: Homo sapiens, NCI-H1299, 72 h
H1650 xenograft = H1650 xenograft in nude mice; type: in vivo; settings: i.v., BO-1978 40 mg/kg, gefitinib 10 mg/kg, daily for 5 consecutive days
H1650-Luc cells = experiment: orthotopic lung tumor model, IVIS; type: in vivo, nude mice; settings: BO-1978 40 mg/kg, gefitinib 10 mg/kg, daily for 5 consecutive days
PC9 xenograft = PC9 xenograft in nude mice; type: in vivo; settings: i.v., BO-1978 40 mg/kg, gefitinib 10 mg/kg, daily for 5 consecutive days
PC9/gef B4 xenograft = PC9/gef B4 xenograft in nude mice; type: in vivo; settings: i.v., BO-1978 40 mg/kg, gefitinib 10 mg/kg, daily for 5 consecutive days
H1975 xenograft = H1975 xenograft in nude mice; type: in vivo; settings: i.v., BO-1978 40 mg/kg, gefitinib 10 mg/kg, daily for 5 consecutive days
KB = experiment: cytotoxicity in multiple drug-resistant and cisplatin-resistant cells; type: cell-based; settings: Homo sapiens
CCRF/VBL = experiment: as above; type: cell-based
KB/vin10 = experiment: as above; type: cell-based
CCRF-CEM = experiment: as above; type: cell-based; settings: Homo sapiens

COc1cc([C@@H]2c3cc4c(cc3[C@@H](O[C@@H]3O[C@@H]5CO[C@@H](C)O[C@H]5[C@H](O)[C@H]3O)[C@H]3COC(=O)[C@H]23)OCO4)cc(OC)c1O [Etoposide] was tested. Which IC50 (A549 cells) did it give?
The IC50 was 22.4 ± 14.4 µM.

And the IC50 (CL100 cells)?
Its IC50 is 4.3 ± 3.87 µM.

What about the IC50 (CL141T cells) of the same compound?
Its IC50 is 23.3 ± 3.34 µM.

And the IC50 (CL97 cells)?
The IC50 was 24.4 ± 17.4 µM.

And the IC50 (PC9 cells)?
The IC50 was 19.3 ± 6.28 µM.

What about the IC50 (H1975 cells) of the same compound?
The IC50 was 14.1 ± 2.9 µM.

And the IC50 (PC9/gef B4 cells; Homo sapiens, 72 h)?
Its IC50 is 36.7 ± 20.5 µM.

What about the “resistance factor of PC9/gef B4 to PC9 cells” value (PC9/gef B4 cells; IC50 ratio, number in brackets) of the same compound?
Its value is 1.90.

What about the IC50 (H1650 cells) of the same compound?
The IC50 was 32.5 ± 17.6 µM.

What about the IC50 (H460 cells) of the same compound?
The IC50 was 7.31 ± 2.56 µM.

What about the IC50 (CL1-5 cells) of the same compound?
The IC50 was 12.6 ± 3.93 µM.

And the IC50 (H1299 cells)?
The IC50 was 15.6 ± 7.45 µM.

Which results are given for COc1cc2ncnc(Nc3ccc(F)c(Cl)c3)c2cc1OCCCN1CCOCC1 [Gefitinib, reference compound]?
suppression of xenograft tumor growth (H1650 xenograft): ~51%; orthotopic growth of H1650-Luc cells (H1650-Luc cells): resistant to gefitinib treatment alone; suppression of xenograft tumor growth (PC9 xenograft): approximately 36%; suppression of xenograft tumor growth (PC9/gef B4 xenograft): ~49%; suppression of xenograft tumor growth (H1975 xenograft): ~1%

For CCc1c2c(nc3ccc(OC(=O)N4CCC(N5CCCCC5)CC4)cc13)-c1cc3c(c(=O)n1C2)COC(=O)[C@]3(O)CC [Irinotecan], which IC50 (A549 cells) is on record?
Its IC50 is 9.29 ± 3.31 µM.

What about the IC50 (PC9 cells) of the same compound?
Its IC50 is 11.2 ± 1.97 µM.

And the IC50 (H1975 cells)?
Its IC50 is 36.8 ± 14.4 µM.

And the IC50 (H1650 cells)?
Its IC50 is 17.1 ± 4.2 µM.

What about the IC50 (H460 cells) of the same compound?
Its IC50 is 4.18 ± 1.29 µM.

And the IC50 (H1299 cells)?
Its IC50 is 24.5 ± 1.85 µM.

For CC[C@]1(O)C[C@H]2CN(CCc3c([nH]c4ccccc34)[C@@](C(=O)OC)(c3cc4c(cc3OC)N(C=O)[C@H]3[C@@](O)(C(=O)OC)[C@H](OC(C)=O)[C@]5(CC)C=CCN6CC[C@]43[C@@H]65)C2)C1 [Vincristine, reference compound], which IC50 (KB) is on record?
The IC50 was 0.00216 ± 0.00025 µM.

And the IC50 (CCRF/VBL)?
The IC50 was 2.13 ± 0.249 µM.

What about the resistance factor (CCRF/VBL; CCRF/VBL vs CCRF-CEM) of the same compound?
Its resistance factor is 954.3 x.

And the IC50 (KB/vin10; Homo sapiens, KB-VIN10)?
Its IC50 is 0.51 ± 0.17 µM.

And the resistance factor (KB/vin10; KB/vin10 vs KB)?
The resistance factor was 236.1 x.

And the IC50 (CCRF-CEM)?
The IC50 was 0.00223 ± 0.00019 µM.
